# Measured values published in patent US9102607B2 (priority 2009, dated 2015).
# “And” between values parts separate entries of the source, which are not always exact repeats. Identical values can stand only once. Like-named read-outs stand apart in the source and are kept apart here.
# How the values were obtained:
# P. acnes CIP53.117 = test: microbe, parasite or virus in culture; format: cell-based, Propionibacterium acnes
# TPA-induced ear oedema = test: Anti-inflammatory activity after a single topical administration in TPA-induced ear oedema; format: in vivo, mouse; conditions: for anti-inflammatory effect (in words) / Inhibition vs TPA (%) / Ear oedema Mean: single topical application; for Inhibition vs TPA (%): T6 h; for Ear oedema Mean: ear thickness at T6 h; for anti-inflammatory effect compared to BPO 5% (in words): compared to BPO at 5%
# Procedure: the aim is to evaluate the anti-inflammatory activity of the peroxides by measuring the thickness of mouse ear after TPA topical application. The anti-inflammatory activity is defined as a inhibition percentage of the TAP-induced ear oedema.
# An oedema was induced by a single topical application of 20 μl of TPA dissolved in acetone at 0.01%.
# Then a single topical application of tested compounds dissolved in TPA solution.
# Ear thickness was measured at T6 h.
# Results are expressed in percentages based on the inhibition on the oedema induced by the TPA application.
# Benzoyl peroxide (BPo) was tested 2 times as a reference peroxide.
# [1] = Cutibacterium acnes, CIP53, 72 h
# [2] = compound 1% in TPA 0.01% solution
# [3] = compound 2.5% in TPA 0.01% solution
# [4] = compound 5% in TPA 0.01% solution
Compound,MIC (P. acnes CIP53.117; [1]),"anti-inflammatory effect (in words) (TPA-induced ear oedema; 1%, 2.5% and 5%)",Inhibition vs TPA (%) (TPA-induced ear oedema; [2]),Ear oedema Mean (TPA-induced ear oedema; [2]),Inhibition vs TPA (%) (TPA-induced ear oedema; [3]),Ear oedema Mean (TPA-induced ear oedema; [3]),Inhibition vs TPA (%) (TPA-induced ear oedema; [4]),Ear oedema Mean (TPA-induced ear oedema; [4]),MIC (P. acnes CIP53.117),anti-inflammatory effect compared to BPO 5% (in words) (TPA-induced ear oedema),anti-inflammatory effect (in words) (TPA-induced ear oedema; at 5%)
"CCOC(=O)Oc1ccccc1C(=O)OOC(=O)c1ccccc1OC(=O)OCC [Example 3, Bis(2-(ethoxycarbonyloxy)benzoyl)peroxide]",160 µg/mL,strong dose-dependent anti-inflammatory effect,45.7%,13.80,66.1%,8.60,81.1%,4.80,–,–,–
"O=C(CC12CC3CC(CC(C3)C1)C2)Oc1ccccc1C(=O)OOC(=O)c1ccccc1 [Example 12, [2-(2-(Adamantan-1-yl)acetoxy)benzoyl]benzoyl peroxide]",320 µg/mL,–,–,–,–,–,–,–,–,–,–
"CC(C)C(=O)Oc1ccccc1C(=O)OOC(=O)c1ccccc1 [Example 10, (2-(Isobutyryloxy)benzoyl)benzoyl peroxide]",80 µg/mL,–,–,–,–,–,–,–,–,–,–
"O=C(OOC(=O)c1ccccc1)c1ccccc1 [BPO, Benzoyl peroxide, reference compound]",–,–,–,–,–,–,21.4% and 27.8%,17.60 and 20.80,–,–,–
"CC(C)(C)C(=O)Oc1ccccc1C(=O)OOC(=O)c1ccccc1 [Example 9, (2-(tert-Butyryloxy)benzoyl)benzoyl peroxide]",–,–,–,–,–,–,–,–,320 µg/mL,–,–
"CC(C)(C)OC(=O)Oc1ccccc1C(=O)OOC(=O)c1ccccc1 [Example 2, (2-(tert-Butoxycarbonyloxy)benzoyl)benzoyl peroxide]",40 µg/mL,–,–,–,–,–,–,–,–,–,–
"CC(C)OC(=O)Oc1ccccc1C(=O)OOC(=O)c1ccccc1OC(=O)OC(C)C [Example 6, Bis(2-(isopropoxycarbonyloxy)benzoyl)peroxide]",80 µg/mL,strong dose-dependent anti-inflammatory effect,57.1%,9.60,78.6%,4.80,93.8%,1.40,–,stronger anti-inflammatory effect,–
"CC(C)OC(=O)Oc1ccccc1C(=O)OOC(=O)c1ccccc1 [Example 5, (2-(Isopropoxycarbonyloxy)benzoyl)benzoyl peroxide]",40 µg/mL,–,8.9%,20.40,44.6%,12.40,72.3%,6.20,–,stronger anti-inflammatory effect,significant anti-inflammatory effect
"CCOC(=O)Oc1ccccc1C(=O)OOC(=O)c1ccccc1 [Example 1, (2-(Ethoxycarbonyloxy)benzoyl)benzoyl peroxide]",80 µg/mL,dose-dependent anti-inflammatory effect,13.9%,24.80,29.9%,20.20,53.5%,13.40,–,significantly superior,–
